# From patent US20200299671A1, “IMMOBILIZED MULTI-ENZYMATIC HALOGENATION SYSTEM” (priority 2019, published 2020)
# Columns and labels:
# PltM K87A = experiment: Cell-based activity assay (Assay 3), PltM K87A; parameters: species or system E. coli BL21 (DE3); conditions: cultures expressing PltM K87A
# Procedure: (§1) E. coli BL21 (DE3) cells were transformed with ppltM-pET28a, ppltMK87A-pET28a, ppltML111Y-pET28a, ppltMS404Y-pET28a, and ppltA-pET28a. The ppltA-pET28a plasmid overexpressing the halogenase PltA whose substrate is pyrrolyl-S-PltL (a peptidyl carrier protein-linked pyrrole) was used as a negative control. Five colonies from each transformant were cultured in 2×500 mL of LB medium (for ppltM-pET28a, ppltML111Y-pET28a, and ppltMS404Y-pET28a) and 1×500 mL of LB medium (for ppltMK87A-pET28a and ppltA-pET28a) with 50 μg/mL kanamycin at 37° C. and 200 rpm until attenuance of 0.2 at 600 nm. The cultures were then moved to 25° C. until attenuance of 0.5. Protein expression was induced by adding 0.2 mM IPTG to all […] flasks, and the cultures were incubated with shaking for 1 h. 12.5 μg/mL of compound 1 was added to 1×500 mL of LB medium containing ppltM-pET28a, ppltMK87A-pET28a, ppltML111Y-pET28a, ppltMS404Y-pET28a, and ppltA-pET28a. Compound 1 was not added to the three remaining flasks (negative controls). After additional incubation for 20 h, the cells were pelleted at 5,000 g for 10 min, and the supernatant was collected. The supernatant was extracted with EtOAc (3×330 mL), which was dried in vacuo. […]
# (§2) The halogenation reaction products were analyzed by HPLC or LC-MS by injecting 10 μL of each sample. […]
# (§3) For HPLC analysis, the molecules were observed by absorbance at λ=275 nm as described above. […]
# PltM L111Y = experiment: Cell-based activity assay (Assay 3), PltM L111Y; parameters: species or system E. coli BL21 (DE3); conditions: cells expressing L111Y mutant
# Procedure: as §1, §2, §3
# PltM S404Y = experiment: Cell-based activity assay (Assay 3), PltM S404Y; parameters: species or system E. coli BL21 (DE3); conditions: cells expressing S404Y mutant
# Procedure: as §1, §2, §3
# PltM = PltM (Pseudomonas protegens, UniProt Q4KCZ3); experiment: X-ray crystallography of PltM crystals soaked with FAD and substrates; conditions: crystals soaked with 0.5 mM FAD and substrate
# Chain of PltM (Q4KCZ3 entry or part of it): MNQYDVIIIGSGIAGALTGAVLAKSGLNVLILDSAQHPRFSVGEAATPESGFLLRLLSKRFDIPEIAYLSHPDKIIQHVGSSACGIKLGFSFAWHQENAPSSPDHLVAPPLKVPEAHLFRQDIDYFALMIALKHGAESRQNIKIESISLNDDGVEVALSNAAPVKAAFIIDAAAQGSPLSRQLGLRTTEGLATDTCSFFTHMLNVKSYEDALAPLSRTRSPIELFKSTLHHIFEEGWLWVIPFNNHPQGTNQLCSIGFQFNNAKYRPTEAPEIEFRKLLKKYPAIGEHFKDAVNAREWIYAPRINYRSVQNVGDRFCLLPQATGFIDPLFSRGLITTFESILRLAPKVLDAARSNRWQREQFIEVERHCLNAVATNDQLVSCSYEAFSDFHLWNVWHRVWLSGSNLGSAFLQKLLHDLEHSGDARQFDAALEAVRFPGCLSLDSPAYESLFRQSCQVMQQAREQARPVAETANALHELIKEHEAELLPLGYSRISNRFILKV
# Procedure: PltM crystals were obtained by the hanging drop method with drops containing 0.5 μL of PltM (40 mg/mL) and 0.5 μL of the reservoir solution (0.1 M Tris pH 8, 0.2 M NaCl, 0.1 M CaCl2) and 12-17% PEG 8000). The drops were equilibrated against 0.5 mL of reservoir solution at 21° C. Long rod-shaped crystals appeared after 1-3 days. The crystals were cryoprotected by a gradual transfer to the solution with the same composition as the reservoir solution, additionally containing 20% glycerol. The crystals were then frozen by a rapid immersion into liquid nitrogen.
# However, PltM contains eight Cys residues, which, if accessible, would react with Hg salts. […] The structure was determined by the single anomalous dispersion (SAD) method from the EMP derivative data set (using the wavelength of 1.0 Å), as follows. […] This Hg substructure was used as an input in Autosolve in PHENIX suite to obtain initial phases, which were bootstrapped by difference Fourier analysis to yield the total of 33 Hg atoms and a readily interpretable electron density map, with the figure of merit of 0.71 after density modification. […]
# PltM crystals were soaked in the reservoir solution used to obtained native PltM crystals, with additional 0.5 mM of FAD. […] FAD was readily discernable in the omit Fo-Fc map. […]
structure (smiles),measurement,setting,value
"Oc1cc(O)cc(O)c1 [Compound 1, phloroglucinol]",halogenation in fermentation culture,PltM K87A,No halogenated product was observed
same,halogenation in fermentation culture,PltM L111Y,product yield was significantly reduced compared to wild-type
same,halogenation in fermentation culture,PltM S404Y,product yield was significantly reduced compared to wild-type
same,omit Fo-Fc electron density of substrate in soaked PltM crystals,PltM,yielded omit Fo-Fc electron density
